Results taken from patent US9675538B2, “Anti-aging agent containing arctigenin derivative” (ROHTO Pharmaceutical Co., Ltd., priority 2012, dated 2017).

What was measured:
[1] = molecular target: T1, elastase (derived from human leukocyte) (Homo sapiens, UniProt P08246); experiment: Elastase activity measurement; format: biochemical; conditions: compared with arctigenin; 37° C., 2 hours, absorbance at 405 nm
T1 construct: elastase (derived from human leukocyte); from tissue; host or cells: human leukocyte
T1 sequence (P08246 30-267): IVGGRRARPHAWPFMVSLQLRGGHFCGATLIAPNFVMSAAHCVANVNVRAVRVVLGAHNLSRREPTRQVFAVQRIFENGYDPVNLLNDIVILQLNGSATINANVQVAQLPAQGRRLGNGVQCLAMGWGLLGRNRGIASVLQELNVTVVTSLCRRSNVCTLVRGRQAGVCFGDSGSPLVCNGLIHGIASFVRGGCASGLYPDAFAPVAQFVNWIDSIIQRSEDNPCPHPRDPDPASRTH
Protocol: Into a 96-well plate were added 1 μL of each of the samples that was dissolved in DMSO, and 100 μL of elastase (derived from human leukocyte) adjusted to 10 μg/mL. Furthermore, to each of the wells was added to 50 μL of a substrate solution (Suc-(Ala)3-pNa) adjusted to 5 mM. A tris-HCL buffer (pH: 8.0) was used to adjust the final volume thereof to 200 μL. Under a condition at 37° C., the plate was heated for 2 hours. The absorbance of the sample at 405 nm was used as an index of the elastase activity, and the elastase inhibiting activity thereof was calculated in accordance with the following equation: The elastase inhibiting activity (%)=(the absorbance of each of the samples/the absorbance of the control)×100

[2] = test system: B16F10 melanoma cells; experiment: Melanin production inhibition test using B16; format: cell-based; conditions: 0.1% (w/v), 72 hours, compared with arctigenin, n=3
Protocol: After 24 hours, the culture solution was removed. […] Furthermore, the cells were cultured for 72 hours.
The absorbance thereof was measured at 475 nm.

[3] = test system: Endothelin-1 (ET-1) production from human epidermal keratinocytes; experiment: Evaluation on production inhibition of endothelin-1 (ET-1) in UVB-irradiated keratinocytes (ELISA); format: cell-based; conditions: UVB 80 mJ/cm^2, supernatant 48 hours after irradiation, relative to agent-free UVB control = 100
Protocol: Human epidermal keratinocytes were inoculated into 6-well plates to give an amount of 100000 cells per well, and then the cells were cultured for 3 days until the cells turned confluent. After it was verified that the cells turned confluent, their media were each substituted with PBS (−). The individual plates were irradiated with UVB at an irradiation intensity of 80 mJ/cm^2. After the irradiation with the UVB, DMEM in which arctigenin or each of the arctigenin derivatives was dissolved was added to one of the individual plates. After 48 hours from the irradiation, the supernatant (in the one plate) was collected, and the supernatant was centrifuged at 3000 rpm for 5 minutes. Furthermore, the supernatant therein was collected to prepare specimens for ELISA. As a control, a sample was used which was obtained by collecting a supernatant of an agent-free plate irradiated with UVB irradiation. A device used for measuring ET-1 was an Endthelin-1 Human EIA kit (manufactured by Assay Designs, Inc.). […] In each of FIGS. 1 to 3 and FIGS. 6 to 8, one of its vertical axes represents a relative value of each of the specimens when the ET-1 production amount of the control was regarded as 100. In each of FIGS. 1 to 3 and FIGS. 6 to 8, its graph line represents the respective cell survival rates (of the specimens) when the value of the control was regarded as 100%.

[4] = test system: tyrosinase (originating from mushroom); experiment: Tyrosinase inhibiting activity measurement; format: biochemical; conditions: test concentration 0.01%, compared with arctigenin
Protocol: To each well of a 96-well plate were added 1 μL of a 1 w/w % of each of the samples (test concentration: 0.01%) that was dissolved in DMSO, 20 μL of a 400 U/mL of a tyrosinase solution (originating from mushroom), and 79 μL of distilled water. Thereto were added a reaction solution (0.1 mg/mL L-tyrosine solution (Wako Pure Chemical Industries, Ltd.)) and 100 μL of a 1.3-mM copper sulfate pentahydrate solution (Wako Pure Chemical Industries, Ltd.)/a 60-mM phosphate buffer (pH: 6.0). The resultant was incubated at 37° C. for one hour. Thereafter, the absorbance of the sample was measured at 640 nm. This was used as a measured value (testing sample measured value or control measured value). The tyrosinase inhibiting activity (%)=(the absorbance of each of the samples/the absorbance of the control)×100

tyrosinase inhibiting capability [4]	Molecule	elastase inhibiting capability [1]	inhibition of the production of melanin per living cell [2]	inhibition of the production of ET-1 [3]
–	COc1ccc(C[C@H]2COC(=O)[C@@H]2Cc2ccc(OC(C)=O)c(OC)c2)cc1OC [Example 1, Acetoxyarctigenin]	far stronger elastase inhibiting capability than arctigenin	–	–
–	Arctigenin Propionate [Example 2]	far stronger elastase inhibiting capability than arctigenin	more significantly inhibited the production of melanin per living cell than arctigenin	–
no tyrosinase inhibiting capability	Palmitate Arctigenin [Comparative Example 1]	–	–	does not significantly inhibit the production of ET-1
